From publication PMC5855801, “Benzothiophenone Derivatives Targeting Mutant Forms of Estrogen Receptor-α in Hormone-Resistant Breast Cancers” (International Journal of Molecular Sciences, 2018)

How the values were obtained:
[1] = target: T1, full-length ERα (estrogen binding site) (Homo sapiens, UniProt P03372); assay: E2 displacement fluorescence polarization assay (PolarScreen ERα Competitor Green); conditions: highest concentration 6 µM, compared to positive control E2
T1 construct: in the presence of 25 nM full-length ERα and 4.5 nM flourescein-E2; purchased Life Technologies P2698
T1 sequence (P03372 1-595): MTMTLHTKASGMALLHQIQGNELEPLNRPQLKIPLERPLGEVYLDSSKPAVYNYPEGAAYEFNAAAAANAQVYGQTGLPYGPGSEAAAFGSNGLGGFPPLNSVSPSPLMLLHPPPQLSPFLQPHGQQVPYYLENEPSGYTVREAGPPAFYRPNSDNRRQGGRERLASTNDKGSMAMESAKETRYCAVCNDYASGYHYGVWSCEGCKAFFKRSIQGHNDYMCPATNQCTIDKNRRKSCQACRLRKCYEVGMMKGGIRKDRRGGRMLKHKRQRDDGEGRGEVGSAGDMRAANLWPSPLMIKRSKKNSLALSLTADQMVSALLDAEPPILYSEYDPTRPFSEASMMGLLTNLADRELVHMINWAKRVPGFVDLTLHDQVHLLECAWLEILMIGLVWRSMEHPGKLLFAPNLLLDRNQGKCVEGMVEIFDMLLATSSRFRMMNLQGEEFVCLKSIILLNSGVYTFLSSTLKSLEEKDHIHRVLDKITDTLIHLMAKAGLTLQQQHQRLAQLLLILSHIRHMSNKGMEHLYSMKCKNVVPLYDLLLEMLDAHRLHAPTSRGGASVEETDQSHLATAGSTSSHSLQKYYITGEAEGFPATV
Protocol: It should be noted that selective estrogen receptor modulators (SERMs) such as tamoxifen displace co-activator protein from AF2 allosterically, i.e., by binding to the estrogen binding site (EBS). To ascertain whether VPC-16606 is not an EBS binder, 17 β-estradiol (E2) displacement was assessed with the Polar Screen Estrogen Receptor-α Competitor Green Assay Kit (P2698, Life Technologies, Carlsbad, CA, USA).
E2 displacement was assessed with the PolarScreen ERα Competitor Assay Green kit (P2698; LifeTechnologies) as per the instructions of the manufacturer. Briefly, 50 µL of assay buffer containing VPC-16606 were added to a 50-μL mixture containing 2× full-length ERα and flourescein-E2 in each well of a […] black plate to obtain final concentrations of 0.2–6.3 μM of the test compound in the presence of 25 nM full-length ERα and 4.5 nM flourescein-E2. After 2 h, polarisation was measured on a Tecan F500 microplate reader.

[2] = target: T2, glucocorticoid receptor (GR) (Homo sapiens, UniProt P04150); assay: Luciferase reporter selectivity assay in PC3 cells, GR; type: cell-based; conditions: 24 h
T2 construct: expressed in transfected cells; host or cells: PC3
T2 sequence (P04150 1-777): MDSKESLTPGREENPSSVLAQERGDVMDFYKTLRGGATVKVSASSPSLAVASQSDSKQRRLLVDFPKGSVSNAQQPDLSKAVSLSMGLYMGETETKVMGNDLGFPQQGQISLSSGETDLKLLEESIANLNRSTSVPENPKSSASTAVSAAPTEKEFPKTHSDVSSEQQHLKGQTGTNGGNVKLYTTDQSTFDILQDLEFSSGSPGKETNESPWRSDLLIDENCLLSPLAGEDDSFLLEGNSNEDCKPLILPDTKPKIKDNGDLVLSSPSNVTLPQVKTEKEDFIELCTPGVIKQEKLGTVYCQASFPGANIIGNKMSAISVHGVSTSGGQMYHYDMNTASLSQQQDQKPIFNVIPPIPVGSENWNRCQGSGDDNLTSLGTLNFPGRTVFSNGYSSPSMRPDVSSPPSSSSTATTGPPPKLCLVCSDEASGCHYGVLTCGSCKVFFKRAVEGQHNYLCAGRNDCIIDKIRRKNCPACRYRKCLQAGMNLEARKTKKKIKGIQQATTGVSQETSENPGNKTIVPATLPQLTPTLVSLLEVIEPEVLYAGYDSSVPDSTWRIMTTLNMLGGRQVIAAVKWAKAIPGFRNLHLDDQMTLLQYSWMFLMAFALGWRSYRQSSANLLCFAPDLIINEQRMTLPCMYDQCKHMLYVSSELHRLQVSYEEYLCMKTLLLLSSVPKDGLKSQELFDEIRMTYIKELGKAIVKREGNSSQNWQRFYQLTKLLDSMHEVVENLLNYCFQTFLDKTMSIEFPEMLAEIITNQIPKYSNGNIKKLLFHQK
Protocol: Figure 4 Further activity profile of VPC-16606. (A,B) Chromatin immunoprecipitation (ChIP) analysis of ERα binding to the pS2 enhancer, or the GAPDH promoter, in MCF7 cells. Where indicated, ERα was stimulated with 1 nM E2 or dimethyl sulfoxide (DMSO) alone, and the compound was administered at a 6 μM concentration. Sheared chromatin-protein complexes were precipitated with the ERα antibody, reverse cross-linked and analyzed by quantitative PCR. The results are normalized as fold enrichment over precipitation with a rabbit isotype control IgG antibody for each condition tested. Error bars indicate standard error of the mean (SEM) for 3 independent experiments performed in triplicates. Fold enrichment from the compound tested condition (ERα antibody) was statistically compared against DMSO + E2 with a two-tailed t-test (unpaired) *** indicates p-value <0.001. (C) Specificity of VPC-16606 was evaluated in the luciferase reporter assay. PC3 cells were transfected with plasmids expressing androgen receptor (AR), progesterone receptor (PR) or glucocorticoid receptor (GR) along with their responsive luciferase reporter constructs bearing androgen response element (ARE), progesterone response element (PRE) or glucocorticoid response element (GRE), respectively. […] Y-axis represents relative luminescence (RLU) after normalizing to constitutive renilla reporter. […]

CC(=O)N(/N=C1\Sc2c(C)cccc2C1=O)c1ccccc1Cl [VPC-16606] was tested, and the “Displacement of fluorescein labelled E2 (FL-E2) from the EBS” value [1] was “minimal displacement”, the “Effect on GR activity (luciferase)” value ([2]; 50 µM) was “some effect” and the “Effect on GR activity (luciferase)” value ([2]; doses up to 25 µM) was “does not affect the activity”.
